Measurements taken from patent publication US6426367B1, “Methods for selectively occluding blood supplies to neoplasias” (EFA Sciences LLC, priority 1999, dated 2002).
Where two headings read alike, the source gives them in different places.

How the values were obtained:
[1] = tested on: tumor cells; settings: cited from earlier work; for differential cytotoxic effect, tumor cells versus normal cells: well defined culture conditions
[2] = tested on: human gliomas; settings: direct intra-tumoral administration; cited from earlier work
[3] = tested on: normal arteries including the celiac, subclavian and popliteal arteries
Procedure: Moreover, in several other patients, a PUFA was injected into normal arteries including the celiac, subclavian and popliteal arteries.
(§1) In order to determine how the arterial supply to the tumor tissue was influenced by the injection of PUFA salt, angiography was performed and recorded during and immediately after the procedure, and at periodic intervals thereafter.

[4] = tested on: stage 4 neoplastic disease (hepatoma, giant cell tumor of the bone, renal cell carcinoma)
Procedure: (§2) Studies were conducted in 5 human patients with stage 4 neoplastic disease. Two of the patients had primary hepatoma (patients 1 and 2), two had giant cell tumor of the bone (patients 3 and 4) and one had renal cell carcinoma (patient 5).
(§3) The lithium salt of GLA was obtained from Scotia Pharmaceuticals, U.K. The PUFA salt was dissolved in sterile saline, sterile phosphate buffered saline (PBS, pH 7.4) or dilute ethanol in saline (final concentration <0.02% ethanol). The final concentration of PUFA in these solutions was approximately 25%. The PUFA solution was mixed with an iodized lymphographic oil (LIPIODOL ULTRA FLUIDE®, Laboratoire Guerbet, Paris, France), in a ratio of between 1:1.5 and 1:3 (volume/volume). In some cases, the PUFA was modified by covalent conjugation (e.g., amide bond) to the iodized lymphographic oil. In other cases the PUFA salt was unmodified, and was diluted directly into the lymphographic agent without conjugation. The PUFA and lymphographic oil mixture was prepared under sterile conditions immediately prior to use.
(§4) Patients were admitted into the hospital for the study. A proximal artery suppling a major portion of the blood supply to the tumor was identified. Catheterization of the major artery from which the proximal artery arises was performed under local anaesthesia. In patients 1 and 2 (with hepatomas), the tip of the catheter was positioned in the right hepatic artery via the right femoral artery. In patient 3 (with giant cell tumor of the right lower end of the femur), the tip of the catheter was positioned in the right femoral/popliteal artery. In patient 4 (with giant cell tumor of the left scapula), the tip of the catheter was positioned in the left subdlavian/axillary arteries. In patient 5 (with left kidney tumor), the tip of the catheter was positioned in the left renal artery. Conjugated PUFA salt was prepared fresh, just prior to injection. Radiographic and CT scan examinations were performed immediately after the injection and at periodic intervals in all the five patients.
Patients 1 and 2 with hepatoma were administered total doses of 1.6 gm and 0.75 gm respectively (the dose refers to the amount of Li-GLA) of PUFA salt into the right hepatic artery through the right femoral route. Patient 3, with giant cell tumor of the lower end of the right femur, underwent right femoral artery catheterization and the tip of the catheter was positioned in the popliteal artery to deliver 500 mg of PUFA salt. Patient 4, who had giant cell tumor of the left scapula, received PUFA salt by selective cannulation of the left subdlavian artery, through the femoral route, from which the tumor-feeding vessel was arising and was given 660 mg of PUFA salt. […] During the administration of PUFA salt, the vital signs of each patient were monitored.

[5] = tested on: tumor-feeding vessels
Procedure: as §2, §3, §4, §1
(§5) Patients 1 and 2 with hepatoma were administered total doses of 1.6 gm and 0.75 gm respectively (the dose refers to the amount of Li-GLA) of PUFA salt into the right hepatic artery through the right femoral route. Patient 3, with giant cell tumor of the lower end of the right femur, underwent right femoral artery catheterization and the tip of the catheter was positioned in the popliteal artery to deliver 500 mg of PUFA salt. Patient 4, who had giant cell tumor of the left scapula, received PUFA salt by selective cannulation of the left subdlavian artery, through the femoral route, from which the tumor-feeding vessel was arising and was given 660 mg of PUFA salt. Patient 5, with renal tumor, received 750 mg of PUFA salt through the right femoral route into the left renal artery from which the tumor-feeding vessels were arising. In all the patients, the administration of PUFA salt was done as swiftly as possible. During the administration of PUFA salt, the vital signs of each patient were monitored.

[6] = Procedure: as §4, §5
[7] = patient 4, seven and a half years after injection

CCCCC/C=C\C/C=C\C/C=C\C/C=C\CCCC(=O)O [AA, arachidonic acid]
differential cytotoxic effect, tumor cells versus normal cells [1]: marked differential cytotoxic effect

CC/C=C\C/C=C\C/C=C\C/C=C\C/C=C\C/C=C\CCC(=O)O [DHA, docosahexaenoic acid]
differential cytotoxic effect, tumor cells versus normal cells [1]: marked differential cytotoxic effect

CC/C=C\C/C=C\C/C=C\C/C=C\C/C=C\CCCC(=O)O [EPA, eicosapentaenoic acid]
differential cytotoxic effect, tumor cells versus normal cells [1]: marked differential cytotoxic effect

CCCCC/C=C\C/C=C\C/C=C\CCCCC(=O)O [GLA, gamma-linolenic acid]
effect on human gliomas [2]: can regress human gliomas
side-effects [2]: without significant side-effects
selectivity of tumoricidal action in mixed culture ([1]; normal and tumor cells grown together): more selective tumoricidal action compared to AA and EPA
differential cytotoxic effect, tumor cells versus normal cells [1]: marked differential cytotoxic effect

CCCCC/C=C\C/C=C\C/C=C\CCCCC(=O)[O-].[Li+] [PUFA salt, lithium salt of GLA]
occlusion of normal arteries feeding the normal lower pole of the kidney ([3]; patient 5, 750 mg, renal artery): without any occlusion
occlusion of normal vasculature feeding non-neoplastic tissues ([3]; patients treated with PUFA salt, angiograms): No occlusion
spasms or occlusions of normal arteries after injection ([3]; several other patients, injection into celiac, subclavian and popliteal arteries): no spasms or occlusions
weight gain after injection ([4]; patient 1, hepatoma, 6 months following the injection): > 10 kgs
reduction in the size of the hepatoma ([4]; patient 1, one month after the first injection): More than 50%
state of the tumor mass at follow-up [4, 7]: completely calcified
survival after injection ([4]; patient 5, advanced renal cell carcinoma with secondary tumors): 3 months
occlusion of the tumor-feeding vessels following PUFA salt injection ([5]; all 5 patients, intra-arterial, 0.5-1.6 gm Li-GLA mixed with or conjugated to LIPIODOL): total occlusion of the tumor-feeding vessels
speed of occlusion of tumor-feeding vessels ([5]; all types of tumor-feeding vessels, irrespective of size): almost instantaneously
occlusion of tumor-feeding vessels in third angiogram ([5]; patient 1, hepatoma, 1 week after second dose (0.5 gm), 11th day after first dose): almost complete occlusion
tumor blush in repeat angiogram ([5]; patient 1, hepatoma, 4 days after first dose): much reduced
tumor-feeding vessels visible on repeat angiogram ([5]; patient 1, hepatoma, 28 days after injection): no tumor-feeding vessels could be seen
tumor-feeding vessels occluded following the first injection ([5]; patient 1, hepatoma, first dose 1.1 gm, right hepatic artery): More than 50%
timing of occlusion of tumor-feeding vessels ([5]; patient 2, hepatoma): essentially simultaneously with the injection
occlusion of tumor-feeding vessels immediately after injection ([5]; patient 2, hepatoma, 750 mg, right hepatic artery): complete occlusion
state of occluded tumor-feeding vessels in repeat angiogram ([5]; patient 3, 10 days after injection): remained closed
occlusion of tumor-feeding vessels immediately after injection ([5]; patient 3, giant cell tumor of right femur, 500 mg, femoral/popliteal artery): Complete occlusion
occlusion of tumor-feeding vessels immediately after administration ([5]; patient 4, giant cell tumor of left scapula, 660 mg, left subclavian artery): Complete occlusion
state of tumor-feeding vessels in follow-up angiogram [5, 7]: still occluded
occlusion of tumor-feeding arteries ([5]; patient 5, renal cell carcinoma, 750 mg, renal artery): Complete occlusion
side-effects due to the therapy ([6]; all 5 patients): no significant side-effects
tolerability of the treatment ([6]; all 5 patients): tolerated the treatment well
biochemical tests after administration ([6]; all patients): normal
side-effect observed ([6]; during and immediately after the injection): mild feeling of warmth followed by pain at the site of the tumor
time until pain subsided ([6]; patient 2, mild to moderate pain in the hepatic region, NSAIDs given): 24 to 48 h
